Read-outs that look alike come from different tables or passages of the source.
Key:
[1] = target: T1, Human recombinant PDE2A (hPDE2A) (Homo sapiens, UniProt O00408); experiment: In vitro assay PDE2A (SPA, 3H-cGMP hydrolysis); format: biochemical; settings: for Emax: read-out: hPDE2A Emax
T1 construct: His tag (inferred from metal chelate purification); made in house; host or cells: Sf9 insect cells (baculovirus)

[2] = target: T2, Human recombinant PDE3A (hPDE3A) (Homo sapiens, UniProt Q14432); experiment: In vitro assay PDE3A (SPA, 3H-cAMP hydrolysis); format: biochemical; settings: for IC50: hPDE3B pIC50, read-out: pIC50 (converted); for Emax: read-out: hPDE3B Emax, read-out: Emax;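 for all read-outs here: the method names PDE3A and the table heading PDE3B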
T2 construct: purchased Scottish Biomedical; host or cells: Sf9 insect cells
Summary of the method: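 Human PDE3A, cloned from brain, as partially purified Sf9 lysate. Substrate 0.4 μM cAMP plus [3H]-cAMP (2.4 μCi/ml final) in 50 mM Tris pH 7.8, 8.3 mM MgCl2, 1.7 mM EGTA, 60 min at room temperature, 1% DMSO final. Hydrolysis read by SPA scintillation counting against no-enzyme blanks and DMSO controls.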

[3] = target: T3, Human recombinant PDE10A (hPDE10A) (Homo sapiens, UniProt Q9Y233); experiment: In vitro assay PDE10A, human clone (SPA, 3H-cAMP hydrolysis); format: biochemical
T3 construct: His tag (inferred from metal chelate purification); made in house; host or cells: Sf9 insect cells (baculovirus)
Summary of the method: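 Human recombinant PDE10A was expressed in Sf9 cells via baculovirus and incubated with compound in 50 mM Tris pH 7.8, 8.3 mM MgCl2, 1.7 mM EGTA. Substrate was 60 nM cAMP plus 0.008 μCi 3H-cAMP for 60 min at room temperature, read by SPA scintillation counting. Controls used 1% DMSO, and blanks omitted enzyme.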

PDE2A = target: T4, PDE2A (Rattus norvegicus, UniProt Q01062); experiment: PDE2 occupancy by test compounds, ex-vivo autoradiography with [3H]B-17a; format: in vivo, Male Wistar rats; settings: 10 mg/kg, percentage receptor occupancy, ex-vivo autoradiography, striatum
T4 construct: Twenty μm-thick striatal sections were cut; from tissue; host or cells: rat brain, striatal sections
T4 sequence (Q01062 1-928): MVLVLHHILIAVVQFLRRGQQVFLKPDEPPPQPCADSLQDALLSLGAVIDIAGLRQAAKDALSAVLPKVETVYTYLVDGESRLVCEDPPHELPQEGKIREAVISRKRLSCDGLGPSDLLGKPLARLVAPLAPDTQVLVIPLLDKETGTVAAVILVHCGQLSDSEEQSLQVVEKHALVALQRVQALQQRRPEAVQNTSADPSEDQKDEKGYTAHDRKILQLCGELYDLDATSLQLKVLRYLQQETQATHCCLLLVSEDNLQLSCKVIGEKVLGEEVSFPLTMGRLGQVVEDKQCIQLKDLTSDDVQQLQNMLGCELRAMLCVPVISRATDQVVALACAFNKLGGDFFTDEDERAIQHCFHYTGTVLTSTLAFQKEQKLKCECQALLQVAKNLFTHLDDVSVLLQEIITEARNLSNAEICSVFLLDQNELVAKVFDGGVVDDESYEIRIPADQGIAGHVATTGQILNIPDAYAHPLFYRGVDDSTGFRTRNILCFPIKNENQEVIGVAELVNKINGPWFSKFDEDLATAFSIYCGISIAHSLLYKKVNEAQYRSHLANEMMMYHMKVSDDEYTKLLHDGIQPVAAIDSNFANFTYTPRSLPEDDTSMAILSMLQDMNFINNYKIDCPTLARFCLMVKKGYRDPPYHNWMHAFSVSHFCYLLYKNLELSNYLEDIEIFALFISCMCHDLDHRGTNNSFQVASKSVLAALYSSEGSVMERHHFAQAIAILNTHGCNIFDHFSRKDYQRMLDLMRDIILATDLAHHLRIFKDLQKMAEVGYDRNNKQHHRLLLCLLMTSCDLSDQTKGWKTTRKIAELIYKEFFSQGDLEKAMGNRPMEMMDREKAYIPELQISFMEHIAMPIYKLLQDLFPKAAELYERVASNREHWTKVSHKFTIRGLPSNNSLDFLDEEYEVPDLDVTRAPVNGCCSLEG

[4] = read-out: hPDE2A pIC50 (converted)
[5] = human clone by default (no (r) mark), read-out: hPDE10A2 or rPDE10A2 Emax
[6] = human clone by default (no (r) mark), read-out: hPDE10A2 or rPDE10A2 pIC50 (converted)
[7] = human recombinant PDE2A, 10 μM cGMP substrate, read-out: hPDE2A pIC50 (converted)
[8] = human clone (h), default, read-out: hPDE10A2 Emax
[9] = human clone (h), default, read-out: hPDE10A2 pIC50 (converted)

T3 sequence (Q9Y233 267-1055): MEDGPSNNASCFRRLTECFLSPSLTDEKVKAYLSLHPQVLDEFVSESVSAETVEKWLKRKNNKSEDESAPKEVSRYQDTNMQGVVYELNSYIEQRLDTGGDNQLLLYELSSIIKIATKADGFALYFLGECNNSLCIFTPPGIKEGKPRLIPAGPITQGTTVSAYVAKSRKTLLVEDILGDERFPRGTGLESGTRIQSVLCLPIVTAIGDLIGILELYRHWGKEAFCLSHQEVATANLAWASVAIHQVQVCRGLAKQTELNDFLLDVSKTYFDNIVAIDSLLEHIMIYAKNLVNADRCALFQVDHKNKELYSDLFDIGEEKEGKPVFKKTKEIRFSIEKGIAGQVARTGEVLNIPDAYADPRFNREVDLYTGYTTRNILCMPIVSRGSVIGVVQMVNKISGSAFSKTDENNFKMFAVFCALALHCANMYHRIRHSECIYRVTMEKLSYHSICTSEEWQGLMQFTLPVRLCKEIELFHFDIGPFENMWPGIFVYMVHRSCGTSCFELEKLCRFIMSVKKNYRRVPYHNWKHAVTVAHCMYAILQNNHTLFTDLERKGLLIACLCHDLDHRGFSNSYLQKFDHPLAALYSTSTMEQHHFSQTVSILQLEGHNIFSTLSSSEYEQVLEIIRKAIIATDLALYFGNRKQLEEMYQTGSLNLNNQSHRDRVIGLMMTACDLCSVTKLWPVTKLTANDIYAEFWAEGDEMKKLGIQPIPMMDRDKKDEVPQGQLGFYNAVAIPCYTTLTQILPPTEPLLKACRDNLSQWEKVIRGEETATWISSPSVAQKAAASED
T1 sequence (O00408 whole entry): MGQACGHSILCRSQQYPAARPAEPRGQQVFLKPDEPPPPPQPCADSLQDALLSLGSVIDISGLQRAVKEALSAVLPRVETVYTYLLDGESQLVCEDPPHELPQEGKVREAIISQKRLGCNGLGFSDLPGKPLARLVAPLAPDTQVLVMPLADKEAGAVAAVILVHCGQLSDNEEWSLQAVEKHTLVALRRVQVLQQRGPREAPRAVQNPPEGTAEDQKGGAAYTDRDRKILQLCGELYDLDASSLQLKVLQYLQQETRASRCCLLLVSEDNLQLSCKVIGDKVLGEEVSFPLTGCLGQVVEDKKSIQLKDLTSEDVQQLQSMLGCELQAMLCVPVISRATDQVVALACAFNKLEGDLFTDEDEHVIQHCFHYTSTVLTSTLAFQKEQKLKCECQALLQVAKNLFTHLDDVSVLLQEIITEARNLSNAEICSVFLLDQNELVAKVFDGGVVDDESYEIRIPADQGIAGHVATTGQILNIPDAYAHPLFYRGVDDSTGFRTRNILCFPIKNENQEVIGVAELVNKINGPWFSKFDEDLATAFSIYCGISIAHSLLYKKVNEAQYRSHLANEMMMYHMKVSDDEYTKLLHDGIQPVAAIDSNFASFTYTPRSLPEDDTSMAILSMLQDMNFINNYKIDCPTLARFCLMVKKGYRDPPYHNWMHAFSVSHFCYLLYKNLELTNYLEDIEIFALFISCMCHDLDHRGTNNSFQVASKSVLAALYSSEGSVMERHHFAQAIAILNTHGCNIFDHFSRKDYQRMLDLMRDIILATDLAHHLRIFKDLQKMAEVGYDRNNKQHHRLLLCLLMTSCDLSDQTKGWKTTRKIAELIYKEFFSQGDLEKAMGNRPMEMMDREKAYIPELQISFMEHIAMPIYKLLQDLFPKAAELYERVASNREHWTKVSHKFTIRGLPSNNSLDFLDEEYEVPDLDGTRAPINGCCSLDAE
T2 sequence (Q14432 whole entry): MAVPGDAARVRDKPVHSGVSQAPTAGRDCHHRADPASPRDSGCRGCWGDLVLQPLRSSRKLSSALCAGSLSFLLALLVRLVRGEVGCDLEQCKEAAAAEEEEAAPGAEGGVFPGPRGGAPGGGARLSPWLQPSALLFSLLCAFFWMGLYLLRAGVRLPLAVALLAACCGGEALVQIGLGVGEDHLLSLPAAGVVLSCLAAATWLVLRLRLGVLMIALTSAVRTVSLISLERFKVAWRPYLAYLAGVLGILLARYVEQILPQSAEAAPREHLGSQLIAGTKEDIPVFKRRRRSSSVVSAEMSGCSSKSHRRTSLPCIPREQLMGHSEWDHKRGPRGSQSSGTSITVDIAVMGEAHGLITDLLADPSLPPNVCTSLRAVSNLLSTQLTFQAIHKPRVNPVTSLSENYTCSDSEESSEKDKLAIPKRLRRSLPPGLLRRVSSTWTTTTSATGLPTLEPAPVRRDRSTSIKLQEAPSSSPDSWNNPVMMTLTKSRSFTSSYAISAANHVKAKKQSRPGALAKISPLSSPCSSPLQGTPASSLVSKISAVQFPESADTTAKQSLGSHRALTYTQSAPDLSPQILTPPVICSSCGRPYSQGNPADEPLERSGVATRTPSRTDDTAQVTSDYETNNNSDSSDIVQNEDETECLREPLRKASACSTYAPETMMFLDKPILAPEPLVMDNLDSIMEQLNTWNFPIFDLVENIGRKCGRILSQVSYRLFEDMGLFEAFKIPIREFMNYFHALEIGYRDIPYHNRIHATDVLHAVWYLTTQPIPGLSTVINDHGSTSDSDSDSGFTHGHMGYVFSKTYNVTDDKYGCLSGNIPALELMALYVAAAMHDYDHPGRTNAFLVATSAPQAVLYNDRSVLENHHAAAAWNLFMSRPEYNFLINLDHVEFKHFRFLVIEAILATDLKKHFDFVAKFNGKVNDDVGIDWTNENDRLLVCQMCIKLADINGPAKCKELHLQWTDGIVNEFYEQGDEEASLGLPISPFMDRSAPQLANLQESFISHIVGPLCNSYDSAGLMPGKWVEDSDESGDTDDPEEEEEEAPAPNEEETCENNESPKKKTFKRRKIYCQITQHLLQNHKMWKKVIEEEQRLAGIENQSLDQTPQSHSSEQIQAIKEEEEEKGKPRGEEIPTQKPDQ

Compound	Emax [1]	IC50 [1, 4]	IC50 [2]	Emax [2]	Emax [3, 5]	IC50 [3, 6]	receptor occupancy at 10 mg/kg (PDE2A; route PO (oral))	IC50 [1, 7]	Emax ([1]; human recombinant PDE2A)	Emax [3, 8]	IC50 [3, 9]	receptor occupancy at 10 mg/kg (PDE2A; sc, route SC (subcutaneous))	receptor occupancy at 10 mg/kg (PDE2A; po, route PO (oral))	IC50 ([1]; hPDE2A pIC50)	IC50 ([1]; hPDE2A pIC50, human recombinant PDE2A, 10 μM cGMP substrate)
O=C(c1ccc2ncccc2c1)N1[C@H]2CC[C@H](c3cc(C(F)F)nc4ncnn34)[C@@H]1CC2 [Compound 311]	96%	1.1 nM	7410 nM	62%	96%	427 nM	-1%								
C[C@@H]1CCN(C(=O)c2cc(Cl)nc(Cl)c2F)C[C@H]1c1cc(C(F)F)nc2ncnn12 [Compound 71]	98%	1.86 nM	> 1000 nM	32%				1.86 nM	98%	94%	339 nM	49%			
C[C@@H]1CCN(C(=O)c2ccc(F)c(OC(F)F)c2)C[C@H]1c1cc(C(F)F)nc2ncnn12 [Compound 193]	100%	5.89 nM	3470 nM	76%				5.89 nM	100%	98%	138 nM	-3%	-11%		
C[C@@H]1CCN(C(=O)c2ccc(F)c(O)c2)C[C@H]1c1cc(C(F)F)nc2ncnn12 [Compound 186]	100%	10.7 nM	6030 nM	69%				10.7 nM	100%	95%	339 nM	8%			
Cc1cc([C@@H]2CN(C(=O)c3cc4cccnc4nc3C(F)(F)F)CC[C@H]2C)n2ncnc2n1 [Compound 13]	100%	10.5 nM	> 10000 nM	38%				10.5 nM	100%	95%	347 nM		2%		
COc1ccc(C(=O)N2CC[C@@H](C)[C@H](c3cc(C(F)F)nc4ncnn34)C2)cn1 [Compound 196]	99%	23.4 nM	4900 nM	68%				23.4 nM	99%	92%	562 nM		0%		
Cc1nc(C(=O)N2CC[C@H](C)[C@H](c3cc(C(F)F)nc4ncnn34)C2)ccc1F [Compound 223]	98%	195 nM	> 10000 nM	19%	71%	3470 nM		195 nM	98%	71%	3470 nM		19%		
Cc1cc([C@@H]2CN(C(=O)c3cc(C)c(C)cn3)CC[C@H]2C)n2ncnc2n1 [Compound 3a]	97%		3470 nM	77%						93%	269 nM		0%	5.75 nM	5.75 nM
Cc1cc([C@@H]2CN(C(=O)c3cc(C4CC4)ncc3Cl)CC[C@H]2C)n2ncnc2n1 [Compound 391]	99%	2.4 nM	2240 nM	81%	97%	63.1 nM							3%		
Cc1cc(C(=O)N2CC[C@@H](C)[C@H](c3cc(C(F)F)nc4ncnn34)C2)c(Cl)cn1 [Compound 51]	101%	5.5 nM	> 10000 nM	44%				5.5 nM	101%	86%	1260 nM		20%		
Cc1cc([C@@H]2CN(C(=O)c3ccnc(Cl)c3F)CC[C@H]2C)n2ncnc2n1 [Compound 11]	100%	22.9 nM	4790 nM	69%				22.9 nM	100%	95%	372 nM				
